“And” between values parts separate entries of the source, which are not always exact repeats. Identical values can stand only once.
Experiments:
Assay type in all cases: in vivo, human
[1] = tested on: urinary uric acid excretion; assay: 24 h urinary uric acid excretion in patients with hyperuricemia and gout (Example 9); details: 50 mg qd Day 1 and 7, tid Days 2 to 6
Method: (§1) The study lasted 7 days, and patients were treated with placebo or 50 mg of enantiomerically-pure (S)-tofisopam once a day (qd) on Day 1 and Day 7 of the study, and with placebo or 50 mg of enantiomerically-pure (S)-tofisopam three times a day (tid) for Days 2 to 6 of the study. […] In Table 8, days indicated with a minus sign (e.g. D-1) indicate the time point corresponding to that number of days before treatment was initiated. For example, D-14 is the time point fourteen days before treatment was initiated.

[2] = tested on: fractional excretion of uric acid; assay: Post hoc analysis of clinical trial specimens: fractional excretion of uric acid and renal function (Example 3); details: 50 mg TID
Source text: (§2) In another study in healthy men and postmenopausal women, the trial period included a single-dose phase (Day 1) and a multiple-dose phase (Days 2-6). […] With multiple-dose oral administration (twice a day (BID) or three times a day (TID) on days 2-6), this decrease was more pronounced.

[3] = tested on: serum uric acid; assay: Serum uric acid in healthy men and postmenopausal women, single-dose and multiple-dose phases (Example 3)
Source text: as §2

[4] = tested on: serum uric acid; assay: Serum uric acid in male and female patients with hyperuricemia and gout, 7 days (Example 7)
Method: The study lasted 7 days, and patients were treated with placebo or 50 mg of enantiomerically-pure (S)-tofisopam once a day (qd) on Day 1 and Day 7 of the study, and with placebo or 50 mg of enantiomerically-pure (S)-tofisopam three times a day (tid) for Days 2 to 6 of the study. […] In Table 6, days indicated with a minus sign (e.g. D-1) indicate the time point corresponding to that number of days before treatment was initiated. For example, D-14 is the time point fourteen days before treatment was initiated.

[5] = tested on: fractional excretion of urate; assay: Fractional excretion of urate in patients with hyperuricemia and gout (Example 9); details: 50 mg qd Day 1 and 7, tid Days 2 to 6
Method: as §1

[6] = individual patient (P#), [D 1 to D 2] from [D −2 to D −1]
[7] = individual patient (P#), [D 6 to D 7] from [D 1 to D 2]
[8] = mean (M) of patients, [D 1 to D 2] from [D −2 to D −1]
[9] = mean (M) of patients, [D 6 to D 7] from [D 1 to D 2]
[10] = 50 mg qd Day 1 and Day 7, tid Days 2 to 6, Day 1 6 h (Day 1 0 h = 0.0), hyperuricemia and gout
[11] = 50 mg qd Day 1 and Day 7, tid Days 2 to 6, Day 1 to Day 2: Day 1 0 h + Day 2, hyperuricemia and gout
[12] = 50 mg qd Day 1 and Day 7, tid Days 2 to 6, Day 2 (Day 1 0 h = 0.0), hyperuricemia and gout
[13] = 50 mg qd Day 1 and Day 7, tid Days 2 to 6, Day 3 (Day 1 0 h = 0.0), hyperuricemia and gout
[14] = 50 mg qd Day 1 and Day 7, tid Days 2 to 6, Day 4 (Day 1 0 h = 0.0), hyperuricemia and gout
[15] = 50 mg qd Day 1 and Day 7, tid Days 2 to 6, Day 5 (Day 1 0 h = 0.0), hyperuricemia and gout
[16] = 50 mg qd Day 1 and Day 7, tid Days 2 to 6, Day 6 (Day 1 0 h = 0.0), hyperuricemia and gout
[17] = 50 mg qd Day 1 and Day 7, tid Days 2 to 6, Day 6 to Day 7: Day 6 + Day 7, hyperuricemia and gout
[18] = 50 mg qd Day 1 and Day 7, tid Days 2 to 6, Day 7 (Day 1 0 h = 0.0), hyperuricemia and gout
[19] = 50 mg qd Day 1 and Day 7, tid Days 2 to 6, Day 8 (after treatment stopped), hyperuricemia and gout
[20] = 50 mg qd Day 1 and Day 7, tid Days 2 to 6, Day 15 (after treatment stopped), hyperuricemia and gout

Which results are given for `CC[C@@H]1C(C)=NN=C(c2ccc(OC)c(OC)c2)c2cc(OC)c(OC)cc21` [(S)-tofisopam]?
Percent change in Uu (mg/dL), concentration of uric acid in 24 hour urine [1, 6]: 32.7% and −13.4% and 4.0% and 15.5% and −77.6% and 91.7% and 106.9% and 71.3% and 13.1% and −24.6% and −32.7% and 54.8%; Percent change in Uu (mg/24 h), amount of uric acid excreted into the urine over 24 hours [1, 7]: 4.6% and 21.3% and 43.8% and 18.3% and 1.0% and −7.0% and −11.6% and −18.9% and 7.9% and −13.3% and −22.8%; Percent change in Uu (mg/dL), concentration of uric acid in 24 hour urine [1, 7]: −15.6% and 1.7% and −17.5% and −15.9% and −20.8% and −40.4% and −48.3% and −49.3% and −9.5% and −14.3% and −39.5%; Percent change in Uu (mg/24 h), amount of uric acid excreted into the urine over 24 hours [1, 8]: 15.9%; Percent change in Uu (mg/dL), concentration of uric acid in 24 hour urine [1, 8]: 20.1%; Percent change in Uu (mg/24 h), amount of uric acid excreted into the urine over 24 hours [1, 9]: 2.1%; Percent change in Uu (mg/dL), concentration of uric acid in 24 hour urine [1, 9]: −24.5%; Effect on other common parameters of renal function [2]: no measurable effect; Fractional excretion of uric acid [2]: increases; Renal injury [2]: no sign of renal injury; Change from Baseline serum uric acid ([3]; 50 mg TID (single dose Day 1), Postmenopausal women, Day 2 AM): −27%; Change from Baseline serum uric acid ([3]; 50 mg TID (single dose Day 1), Postmenopausal women, Day 4 AM): −58%; Change from Baseline serum uric acid ([3]; 50 mg TID (single dose Day 1), Postmenopausal women, Day 7 AM): −65%; Change from Baseline serum uric acid ([3]; 50 mg TID (single dose Day 1), Young men, Day 2 AM): −19%; Change from Baseline serum uric acid ([3]; 50 mg TID (single dose Day 1), Young men, Day 4 AM): −63%; Change from Baseline serum uric acid ([3]; 50 mg TID (single dose Day 1), Young men, Day 7 AM): −59%; Change from Baseline serum uric acid ([3]; 150 mg BID (single dose Day 1), Postmenopausal women, Day 2 AM): −48%; Change from Baseline serum uric acid ([3]; 150 mg BID (single dose Day 1), Postmenopausal women, Day 4 AM): −76%; Change from Baseline serum uric acid ([3]; 150 mg BID (single dose Day 1), Postmenopausal women, Day 7 AM): −71%; Change from Baseline serum uric acid ([3]; 150 mg BID (single dose Day 1), Young men, Day 2 AM): −31%; Change from Baseline serum uric acid ([3]; 150 mg BID (single dose Day 1), Young men, Day 4 AM): −72%; Change from Baseline serum uric acid ([3]; 150 mg BID (single dose Day 1), Young men, Day 7 AM): −72%; Uric acid levels after a single oral dose ([3]; 24 hours after single dose of 50 mg or 150 mg (Day 1), men and women): Decreased; Reductions from baseline in uric acid ([3]; by the morning of Day 4, male and female subjects, 50 mg TID or 150 mg BID): > 50%; Percent change in serum uric acid, individual patients (P# 1-13) [4, 10]: −12.0% and 4.1% and −4.3% and −8.0% and −12.5% and −8.1% and −13.9% and −8.2% and −5.6%; Percent change in serum uric acid, mean (M) of 13 patients [4, 10]: −6.9%; Percent change in serum uric acid, individual patients (P# 1-13) [4, 11]: −10.7% and −9.6% and −4.3% and −7.3% and −8.9% and −8.1% and −12.0% and −2.6% and −3.5%; Percent change in serum uric acid, mean (M) of 13 patients [4, 11]: −6.8%; Percent change in serum uric acid, individual patients (P# 1-13) [4, 12]: −21.3% and −19.2% and −8.6% and −14.7% and −17.7% and −16.2% and −24.1% and −5.2% and −7.0%; Percent change in serum uric acid, mean (M) of 13 patients [4, 12]: −13.6%; Percent change in serum uric acid, individual patients (P# 1-13) [4, 13]: −32.0% and −43.8% and −14.3% and −30.7% and −36.5% and −18.9% and −45.6% and −12.4% and −16.9% and −9.6%; Percent change in serum uric acid, mean (M) of 13 patients [4, 13]: −26.6%; Percent change in serum uric acid, individual patients (P# 1-13) [4, 14]: −38.7% and −54.8% and −27.1% and −42.7% and −43.8% and −37.8% and −54.4% and −59.8% and −35.2%; Percent change in serum uric acid, mean (M) of 13 patients [4, 14]: −41.8%; Percent change in serum uric acid, individual patients (P# 1-13) [4, 15]: −48.0% and −52.1% and −40.0% and −36.0% and −45.8% and −33.8% and −50.6% and −25.8% and −39.4%; Percent change in serum uric acid, mean (M) of 13 patients [4, 15]: −41.1%; Percent change in serum uric acid, individual patients (P# 1-13) [4, 16]: −40.0% and −53.4% and −31.4% and −64.0% and −45.8% and −31.1% and −50.6% and −28.9% and −39.4%; Percent change in serum uric acid, mean (M) of 13 patients [4, 16]: −43.1%; Percent change in serum uric acid, individual patients (P# 1-13) [4, 17]: −44.0% and −56.2% and −36.4% and −56.0% and −46.9% and −31.1% and −53.2% and −34.5% and −40.8%; Percent change in serum uric acid, mean (M) of 13 patients [4, 17]: −45.1%; Percent change in serum uric acid, individual patients (P# 1-13) [4, 18]: −48.0% (2×) and −58.9% and −41.4% and −47.9% and −31.1% and −55.7% and −40.2% and −42.3%; Percent change in serum uric acid, mean (M) of 13 patients [4, 18]: −47.1%; Percent change in serum uric acid, individual patients (P# 1-13) [4, 19]: −36.0% (2×) and −46.6% and −32.9% and −41.7% and −24.3% and −45.6% and −30.9% and −26.8%; Percent change in serum uric acid, mean (M) of 13 patients [4, 19]: −35.5%; Percent change in serum uric acid, individual patients (P# 1-13) [4, 20]: 36.0% and 17.8% and 25.7% and −13.3% and 1.0% and 39.2% and 30.4% and 10.3% and 26.8%; Percent change in serum uric acid, mean (M) of 13 patients [4, 20]: 18.9%; Effect on serum uric acid levels ([4]; 50 mg qd Day 1 and Day 7, tid Days 2 to 6, male and female patients with hyperuricemia and gout): decreases; Serum uric acid levels once treatment was stopped after 7 days ([4]; after 7 days of 50 mg treatment, hyperuricemia and gout): began to increase again; Percent change in FEu (fractional excretion uric acid) [5, 6]: −14.9% and 11.7% and −0.2% and 41.9% and −54.2% and 137.8% and 62.9% and 162.7% and 51.0% and −29.6% and 19.5% and 40.4%; Percent change in FEu (fractional excretion uric acid) [5, 7]: 139.3% and 78.5% and 160.4% and 60.9% and 100.7% and 62.6% and 17.3% and 33.2% and 61.6% and 57.5% and 125.9%; Percent change in FEu (fractional excretion uric acid) [5, 8]: 35.8%; Percent change in FEu (fractional excretion uric acid) [5, 9]: 81.6%

Reference: patent publication US9408852B2, “Method of lowering serum uric acid levels with (S)-tofisopam” (PHARMOS CORPORATION, priority 2011, dated 2016)
